Measurements published in PMC11767297, “6-Bromoindole- and 6-Bromoindazole-Based Inhibitors of Bacterial Cystathionine γ-Lyase Containing 3-Aminothiophene-2-Carboxylate Moiety” (Molecules, 2025).
Like-named read-outs stand apart in the source and are kept apart here.

What was measured:
bCSE [1] = details: cited from earlier work
MTT test, cytotoxicity = format: cell-based; details: human, HEK293T cells; MTT test, 72 h; concentration required to inhibit 50% cell culture growth; read-out: CC50 of compounds (HEK273T)
Procedure: (§1) HEK293T cells were grown in the DMEM:F12 (2:1) medium supplemented with 10% FBS (BioSera, Cholet, France), 2 mM L-glutamine, 100 U/mL penicillin and 100 μg/mL streptomycin in the presence of 5% CO2 at 37 °C. Cells were re-seeded every three days at a ratio of 1:3 or 1:5.
(§2) Stock solutions were diluted in DMSO (BioReagent of molecular biology grade, Sigma, St. Louis, MO, USA), and the final DMSO concentration was 1%. After 24 h (30–40% monolayer), the solutions of the studied compounds diluted at different concentrations were introduced to the culture medium. After the incubation at 37 °C in 5% CO2 for 72 h, a freshly prepared solution of thiazolyl blue tetrazolium bromide at a final concentration of 0.4 mg/mL was added to each well of the plate. Incubation was performed at +37 °C for 2 h. The medium containing unreacted MTT was removed via aspiration. The formed formazan dye was dissolved in 100 µL of isopropanol added to each well of the plate. The result of the analysis was evaluated using a Tecan Spark spectrophotometer (absorbance at 544 nm).

B. subtilis 168 strain [2] = tested on: B. subtilis 168 strain; design: method as in PMID 39970094; details: parent MNS1, in the presence of 0.1 µg Gm; previously known data for gentamicin potentiation; cited from earlier work
B. subtilis 168 strain [3] = assay: Kanamycin A-potentiating activity, growth curves; format: cell-based, Bacillus subtilis; details: potentiator concentration in the presence of 0.25 µg Km (MICKm = 2 µg/mL); potentiator varied with an interval of 10 μM
Procedure: The potentiating properties and minimum inhibitory concentration (MIC) were assessed similarly to the testing with gentamicin, and additionally, the previously reported MNS1 was used for comparison (Figure 3). The MIC of kanamycin A for B. subtilis cells is 2 μg/mL. […] A lower cytotoxic effect on HEK273T culture (Table 1) allows us to conclude that MNS3 is the hit compound in the series (the experimental curves for CC50 estimation via the MTT test are given in the Supplementary Information File).
(§3) Gentamicin-potentiating activity testing of the compounds in B. subtilis. The growth curves of B. subtilis were obtained with a Bioscreen C automated growth curve analysis system (Oy Growth Curves Ab, Finland, Helsinki). The B. subtilis strain 168 was grown overnight in LB at 37 °C and diluted with fresh medium (1:100) containing the antibiotic and a test compound as specified in the text and figure captions. Aliquots (150 μL) of each mixture were added into plate wells in triplicate and incubated with continuous agitation at 37 °C. The optical density at 600 nm (OD600) was recorded automatically for 24 h. The results were averaged over three replicate experiments to plot the time dependences of bacterial growth.
Figure 3 Determination of the potentiating properties of compounds.

hCSE [4] = biological target: hCSE; design: method as in PMID 34112687, PMID 37110802, doi:10.1016/j.mencom.2024.02.030, PMID 39970094, PMID 38771206; details: Figure 1; cited from earlier work
[5] = tested on: hydrogen sulfide production by B. subtilis 168 cells; assay: Hydrogen sulfide generation, lead acetate paper strips; format: cell-based, Bacillus subtilis; details: B. subtilis cell culture, Figure 2F
Procedure: The generation of hydrogen sulfide in B. subtilis cells was monitored according to the published protocol using lead acetate as a colorimetric sensor [29]. The inner surface of a cell culture flask was equipped above the level of the liquid with a standardized paper strip soaked with 2% aq. Pb(OAc)2. Overnight cultures were diluted with LB (1:50) and incubated at 37 °C under aeration conditions for 16–18 h. The test compounds (MNS1 and NL2) were used at 32 μM; LB without supplements was used as a negative control. Paper strips stained with the formed PbS precipitate were scanned using an AlphaImager gel imaging system (BioTechne, USA, Minneapolis, Minnesota). The results were normalized to the optical density of the culture.
(§4) Figure 2 Determination of the potentiating properties of compounds. Representative growth curves of B. subtilis 168 strain in the presence of 0.1 μg/mL gentamicin (Gm) and potentiators: MNS2 (A), MNS3 (B), MNS4 (C), MNS5 (D) and MNS6 (E). The cells were grown at 37 °C with aeration in a Bioscreen C automated growth assay system. The curves represent the mean values of three independent experiments with an error of <5%. Evaluation of hydrogen sulfide production by B. subtilis 168 cells in the presence of the potentiators studied (F): MNS2 (100 µM), MNS3 (90 µM), MNS4 (60 µM), MNS5 (60 µM) and MNS6 (100 µM). The filter paper strips soaked in 2% lead acetate solution show brown staining with PbS salt as a result of H2S evaporation by the bacterial suspension. The numbers indicate H2S production relative to wild-type cells. TEXT PRINTED IN THE PICTURE: (F) MNS2: 100% | (F) MNS3: >120% | (F) MNS4: >120% | (F) MNS5: <35% | (F) MNS6: <35% DOUBTS OF THE COPYIST ABOUT THIS PICTURE: Panel F: the picture prints no measure for the percentages, so they are given without one. / Panel F: the column "Control" (100%) is left out because it is not a substance.

B. subtilis 168 strain [6] = assay: Gentamicin-potentiating activity, growth curves (Bioscreen C); format: cell-based, Bacillus subtilis; details: for MIC with Gm (B. subtilis): potentiator concentration in the presence of 0.1 µg Gm (0.1 MIC; MICGm = 1 µg/mL), potentiator varied with an interval of 10 μM
Procedure: We selected the B. subtilis 168 strain as the model micro-organism to determine the potentiating properties of the new compounds. The active center of the proposed target protein, cystathionine γ-lyase, has a conservative structure for a wide range of micro-organisms, including pathogens; thus, B. subtilis can be used as a less toxic model object containing the CGL enzyme for testing. The efficiency of CGL inhibitors was assessed by the standard minimum inhibitory concentration (MIC) assay. The potentiating properties were investigated according to the technique reported previously for NL2 [10]. The MIC of gentamicin for B. subtilis cells is 1 μg/mL, which is consistent with known CLSI breakpoints for the genus Bacillus. […] In addition, we tested the effect of the compounds on the generation of hydrogen sulfide by the B. subtilis cell culture (Figure 2F). […] The latter effect, however, may be attributed to the presence of the sulfur atom in the structure of these inhibitors assuming their possible hydrolysis if not bound to the enzyme in the cellular environment.
as §3
as §4, with “TEXT PRINTED IN THE PICTURE: (F) MNS2: 100% | (F) MNS3: >120% | (F) MNS4: >120% | (F) MNS5: <35% | (F) MNS6: <35% DOUBTS OF THE COPYIST ABOUT THIS PICTURE: Panel F: the picture prints no measure for the percentages, so they are given without one. / Panel F: the column "Control" (100%) is left out because it is not a substance.” left out

HEK273T = assay: MTT test, cytotoxicity; format: cell-based; details: in words, conclusions
Procedure: as §1, §2

hCSE [7] = tested on: hCSE; design: method as in PMID 34112687, PMID 37110802, doi:10.1016/j.mencom.2024.02.030, PMID 39970094, PMID 38771206; details: Figure 1; cited from earlier work; remark: listed apart in the source
bCSE [8] = tested on: bCSE; design: method as in PMID 34112687, PMID 37110802, doi:10.1016/j.mencom.2024.02.030, PMID 39970094, PMID 38771206; details: Figure 1; cited from earlier work
B. subtilis cells = assay: MIC of the antibiotic alone, microdilution method (CLSI); format: cell-based, Bacillus subtilis
Procedure: Standardized MIC was determined using the microdilution method, as recommended by the Clinical and Laboratory Standards Institute (CLSI). […] The B. subtilis inoculate (100 μL) contained 1.0 × 10^6 CFU/mL. The minimum inhibitory concentration (MIC) was defined as the lowest antibiotic concentration that prevented turbidity in the inoculate following incubation at 37 °C for a duration of 24 h. Gentamycin was used at 0.1 μg/mL (10% of MIC) in further experiments.

In the case of `O=C(O)c1ccc(Cn2ccc3ccc(Br)cc32)cc1` [3h], the Kd (bCSE [1]; Figure 1, read-out: KD (bCSE)) is given as 0.8 ± 0.3 µM.
In the case of `Nc1csc(Cn2ccc3ccc(Br)cc32)c1` [MNS1], the CC50 at 72 h (MTT test, cytotoxicity) is listed as 30 µM, the “MIC with Gm (B. subtilis)” value (B. subtilis 168 strain [2]) is listed as roughly 50 µM and the Kd (bCSE [1]; Figure 1, read-out: KD (bCSE)) is listed as 0.59 ± 0.04 µM. For the same molecule, the Kd (bCSE [1]; introduction, read-out: binding constant with CGL) was roughly 0.6 µM, the “MIC with Km (B. subtilis)” value (B. subtilis 168 strain [3]) was 100 µM and the Kd (hCSE [4]) was 11.6 ± 0.1 µM.
With `Nc1cc(Cn2ccc3ccc(Br)cc32)sc1C(=O)[O-].[K+]` [MNS2, Potassium 3-Amino-5-((6-bromo-1H-indol-1-yl)methyl)thiophene-2-carboxylate] the CC50 at 72 h (MTT test, cytotoxicity) was 25 µM, the “rate of hydrogen sulfide generation compared to the control group of cells” value (“rate … compared to the control group of cells” below) [5] was “enhanced” and the “inhibition of B. subtilis growth in combinations with gentamicin” value (B. subtilis 168 strain [6]; concentration range from 50 to 100 µM) was “failed to inhibit”.
In the case of `Nc1cc(Cn2ncc3ccc(Br)cc32)sc1C(=O)[O-].[K+]` [MNS3, Potassium 3-Amino-5-((6-bromo-1H-indazol-1-yl)methyl)thiophene-2-carboxylate], the CC50 at 72 h (MTT test, cytotoxicity) is reported as 190 µM, the “cytotoxicity in HEK273T” value (HEK273T) is reported as “moderate cytotoxicity” and the “rate … compared to the control group of cells” value [5] is reported as “enhanced”. For the same molecule, the “MIC with Km (B. subtilis)” value (B. subtilis 168 strain [3]) was 90 µM and the “MIC with Gm (B. subtilis)” value (B. subtilis 168 strain [6]) was roughly 90 µM.
For `Nc1cc(Cn2cc3ccc(Br)cc3n2)sc1C(=O)[O-].[K+]` [MNS4, Potassium 3-Amino-5-((6-bromo-2H-indazol-2-yl)methyl)thiophene-2-carboxylate], the CC50 at 72 h (MTT test, cytotoxicity) was 87 µM, the “cytotoxicity in HEK273T” value (HEK273T) was “moderate cytotoxicity” and the “MIC with Km (B. subtilis)” value (B. subtilis 168 strain [3]) was 70 µM. The “MIC with Gm (B. subtilis)” value (B. subtilis 168 strain [6]) was roughly 60 µM.
For `Cc1oc(Cn2ncc3ccc(Br)cc32)cc1C(=O)O` [MNS5, 5-((6-Bromo-1H-indazol-1-yl)methyl)-2-methylfuran-3-carboxylic Acid], the CC50 at 72 h (MTT test, cytotoxicity) was 250 µM, the “rate … compared to the control group of cells” value [5] was “significantly reduced” and the “MIC with Km (B. subtilis)” value (B. subtilis 168 strain [3]) was 100 µM. The “MIC with Gm (B. subtilis)” value (B. subtilis 168 strain [6]) was roughly 60 µM.
With `Cc1oc(Cn2cc3ccc(Br)cc3n2)cc1C(=O)O` [MNS6, 5-((6-Bromo-2H-indazol-2-yl)methyl)-2-methylfuran-3-Carboxylic Acid] the CC50 at 72 h (MTT test, cytotoxicity) was 260 µM and the “rate … compared to the control group of cells” value [5] was “significantly reduced”.
In the case of `O=C(O)CNC(=O)Cn1ccc2ccc(Br)cc21` [NL1], the IC50 (hCSE [7]) is listed as 29.2 ± 2 µM and the IC50 (bCSE [8]) is listed as 5.8 ± 2.7 µM.
In the case of `Cc1oc(Cn2ccc3ccc(Br)cc32)cc1C(=O)O` [NL2], the IC50 (hCSE [7]) is listed as 25.3 ± 2.6 µM, the IC50 (bCSE [8]) is listed as 1.8 ± 0.5 µM and the Kd (bCSE [1]; Figure 1, marked "our data", read-out: KD (bCSE)) is listed as 1.1 ± 0.3 µM.
For `O=C(O)c1cc(Cn2ccc3ccc(-c4cc5cccc(Cl)c5s4)cc32)n[nH]1` [NL3], the IC50 (hCSE [7]) is listed as 3.4 ± 0.8 µM and the IC50 (bCSE [8]) is listed as 0.7 ± 0.2 µM.
In the case of `CNC(C)C1CCC(N)C(OC2C(N)CC(N)C(OC3OCC(C)(O)C(NC)C3O)C2O)O1` (stereo not shown) [gentamicin], the MIC (B. subtilis cells; Bacillus subtilis, 37 °C, 24 h, read-out: MIC of gentamicin for B. subtilis cells) is reported as 1 µg/mL.
With kanamycin A the “MIC of kanamycin A for B. subtilis cells” value (B. subtilis cells) was 2 µg/mL.
